The source of these data is PubChem BioAssay (NCI).

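Grown in 96-well plates, cells were treated for 48 hours with each compound at five concentrations. Insufficient inhibition: endpoint recorded as highest concentration tested. Abbreviation: GI50, concentration required for 50% inhibition of growth. TGI: concentration producing complete growth inhibition.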 Bounds are passed on as bounds.

Test systems include HOP-92 NSCLC; EKVX NSCLC; A549 NSCLC; SF-268 CNS; OVCAR-3 ovarian; SK-MEL-5 melanoma; HL-60(TB) leukemia; NCI/ADR-RES ovarian; MDA-MB-231 breast; MDA-MB-435.
What all share (assay): growth of human tumour cells (NCI), 48 h

Consider `O=C(c1ccccc1)N1C2CCC1C(C(F)(F)F)=C2C(F)(F)F`, for which the TGI in the experiment with HOP-92 NSCLC, with EKVX NSCLC, with A549 NSCLC, in the experiment with SF-268 CNS, with OVCAR-3 ovarian and with SK-MEL-5 melanoma was greater than 100 µM in each case. Besides, in the experiment on HL-60(TB) leukemia, the TGI was greater than 100 µM.
As to `NS(=O)(=O)c1ccc(NC2=CC(=O)C(=O)c3ccccc32)cc1`, the TGI in the experiment on HOP-92 NSCLC, with EKVX NSCLC, with A549 NSCLC, in the experiment on SF-268 CNS, with OVCAR-3 ovarian and in the experiment with SK-MEL-5 melanoma was greater than 100 µM each time. This compound also came in with a TGI in the experiment on HL-60(TB) leukemia greater than 100 µM.
As for `COc1c(C(=O)c2ccc([N+](=O)[O-])cc2)cc(C(C)(C)C)cc1C(C)(C)C`, the TGI with EKVX NSCLC was greater than 100 µM; in the experiment on A549 NSCLC, greater than 100 µM; in the experiment on SF-268 CNS, greater than 100 µM; with SK-MEL-5 melanoma it was 32.1 µM; in the experiment on HL-60(TB) leukemia, 47.2 µM.
In the case of `CC1CC(=O)Nc2ccccc2N1C(=O)CN1CCC(CCCCN(C)C)CC1` (configuration not stated), the TGI in the experiment with EKVX NSCLC, in the experiment with A549 NSCLC, in the experiment on SF-268 CNS, with OVCAR-3 ovarian, in the experiment with SK-MEL-5 melanoma and with HL-60(TB) leukemia was greater than 100 µM throughout.
As to `O=C1CCC2CC(C(=O)c3ccccc3)CCC2CN1` (configuration not stated) (tested in a mixture with another compound), the TGI with EKVX NSCLC, in the experiment with A549 NSCLC, with SF-268 CNS, with OVCAR-3 ovarian, with SK-MEL-5 melanoma and in the experiment on HL-60(TB) leukemia was greater than 100 µM throughout.
On to `CC1C[C@H](C)CC(C(O)CC2CC(=O)N(Cc3ccccc3)C(=O)C2)C1O` (some centres not stated), for which the TGI in the experiment with HOP-92 NSCLC, in the experiment on EKVX NSCLC, in the experiment with A549 NSCLC, in the experiment with SF-268 CNS, in the experiment with OVCAR-3 ovarian and in the experiment with HL-60(TB) leukemia was greater than 100 µM in each case.
As for `CCOC(=O)n1cc(C2=C(c3cn(C)c4ccccc34)COC2=O)c2ccccc21`, the GI50 is 0.177 µM with EKVX NSCLC; 0.0531 µM in the experiment with NCI/ADR-RES ovarian; 0.347 µM with MDA-MB-231 breast; 0.166 µM in the experiment with A549 NSCLC; 1.02 µM in the experiment with SF-268 CNS; 0.0391 µM with OVCAR-3 ovarian. For the same compound, the figures for the GI50 in the experiment with SK-MEL-5 melanoma and with HL-60(TB) leukemia were 0.0359 µM and 0.124 µM, respectively. Besides, the TGI in the experiment on EKVX NSCLC is greater than 100 µM; with MDA-MB-231 breast, greater than 70.5 µM; with A549 NSCLC, greater than 100 µM; in the experiment with SF-268 CNS it was 62.9 µM; with OVCAR-3 ovarian, 0.277 µM; in the experiment with SK-MEL-5 melanoma, 0.393 µM. In the experiment with HL-60(TB) leukemia, this compound registered a TGI of 0.511 µM.
As to `CCCCCCCCOCC(O)COC(=O)CCCCCCC` (configuration not stated), the TGI in the experiment on HOP-92 NSCLC is 82.3 µM; with A549 NSCLC, greater than 100 µM; with SF-268 CNS, greater than 100 µM; in the experiment with OVCAR-3 ovarian, 64.8 µM; in the experiment on SK-MEL-5 melanoma, greater than 100 µM; in the experiment with HL-60(TB) leukemia it was 93.9 µM.
Take `CCOC(=O)CSC(=O)NCCCl`: the TGI in the experiment on HOP-92 NSCLC, with EKVX NSCLC, in the experiment on A549 NSCLC, in the experiment with SF-268 CNS, in the experiment with OVCAR-3 ovarian and in the experiment on HL-60(TB) leukemia was greater than 100 µM throughout. Besides, the GI50 in the experiment on HL-60(TB) leukemia is 22.3 µM.
In the case of `COC(=O)/C=C(\C(=O)OC)c1c2c3c(cc(OC)c(OC)c3c3ccccc13)CCN2C`, the TGI in the experiment on HOP-92 NSCLC was greater than 100 µM; in the experiment with EKVX NSCLC, greater than 100 µM; in the experiment on A549 NSCLC it was greater than 100 µM; in the experiment with SF-268 CNS, greater than 100 µM; in the experiment on OVCAR-3 ovarian, greater than 100 µM; in the experiment with SK-MEL-5 melanoma, 34.3 µM. The compound further registered a TGI in the experiment with HL-60(TB) leukemia of 56.3 µM.
Consider `O=C1c2nsnc2C(=O)c2c(F)c(F)c(F)c(F)c21`, for which the GI50 with NCI/ADR-RES ovarian is 1.63 µM; with MDA-MB-231 breast, 1.38 µM; in the experiment on A549 NSCLC, 2.15 µM; in the experiment on MDA-MB-435, 0.846 µM; in the experiment on SF-268 CNS, 1.6 µM; with SK-MEL-5 melanoma, 1.24 µM. Further, the GI50 in the experiment with HL-60(TB) leukemia is 0.591 µM. In addition, the TGI is 4.33 µM in the experiment with NCI/ADR-RES ovarian; 2.78 µM in the experiment with MDA-MB-231 breast; 4.85 µM with A549 NSCLC; 2.14 µM with MDA-MB-435; 3.17 µM with SF-268 CNS; 2.52 µM in the experiment with SK-MEL-5 melanoma. The compound also came in with a TGI in the experiment with HL-60(TB) leukemia of 2.73 µM.
Turning to `Clc1cccc(Cl)c1C1CSc2ccccc2N=C1c1ccccc1` (configuration not stated), the GI50 with NCI/ADR-RES ovarian is 4.14 µM; in the experiment on MDA-MB-231 breast, 2.95 µM; in the experiment on A549 NSCLC, 12.2 µM; in the experiment on MDA-MB-435 it was 3.59 µM; in the experiment on SF-268 CNS, 3.07 µM; with OVCAR-3 ovarian, 3.92 µM. Further, the GI50 with SK-MEL-5 melanoma was 4.74 µM; with HL-60(TB) leukemia, 8.2 µM. Moreover, the TGI in the experiment on NCI/ADR-RES ovarian was 32 µM; in the experiment on MDA-MB-231 breast it was 14.1 µM; in the experiment with A549 NSCLC it was 28.1 µM; in the experiment with MDA-MB-435, 13.6 µM; with SF-268 CNS, 11.2 µM; with OVCAR-3 ovarian, 13.4 µM. Also, the TGI in the experiment with SK-MEL-5 melanoma was 18.1 µM; with HL-60(TB) leukemia, 38.7 µM.
On to `COc1ccc(C2CC(c3cc(C)ccc3O)=NC(N)=N2)cc1` (configuration not stated), for which the TGI in the experiment on HOP-92 NSCLC, with EKVX NSCLC, in the experiment with A549 NSCLC, in the experiment with SF-268 CNS, in the experiment on OVCAR-3 ovarian and in the experiment on HL-60(TB) leukemia was greater than 100 µM throughout.
In the case of `C=C(C)[C@@H]1CC[C@]2(C(=O)O)CC[C@]3(C)[C@H](CC[C@@H]4[C@@]5(C)C[C@@H](CC#Cc6ccc(C(F)(F)F)cc6)[C@H](O)C(C)(C)[C@@H]5CC[C@]43C)[C@@H]12`, the GI50 with HOP-92 NSCLC was 3.09 µM; with EKVX NSCLC, 3.82 µM; with NCI/ADR-RES ovarian it was 47.3 µM; with SK-MEL-5 melanoma it was 8.97 µM; in the experiment with HL-60(TB) leukemia it was 6.2 µM. The TGI is 13.8 µM in the experiment on HOP-92 NSCLC; greater than 100 µM in the experiment with EKVX NSCLC; greater than 100 µM in the experiment on NCI/ADR-RES ovarian; greater than 100 µM with SK-MEL-5 melanoma; greater than 100 µM in the experiment on HL-60(TB) leukemia.
In the case of `O=C(c1ccccc1)[C@H]1Nc2ccc(Cl)cc2C2c3ccccc3CC21` (some centres not stated), the TGI was greater than 100 µM in the experiment with A549 NSCLC, greater than 100 µM in the experiment on SF-268 CNS, 66.1 µM in the experiment on OVCAR-3 ovarian and 85.2 µM with SK-MEL-5 melanoma.
